Tests used:
Akt = assay: Insulin-stimulated phosphorylation of Akt in L6 myotubes exposed to high FA; assay type: cell-based, rat; settings: 24 h exposure to high FA
Method: The model predicts that the development of insulin resistance requires FA uptake into muscle mitochondria and subsequent β-oxidation. To test this model, signaling experiments were performed in which mitochondrial FA metabolism was inhibited by carnitine deficiency or etomoxir.

L6 myocytes = assay: Acylcarnitine and ketone accumulation in L6 myocytes exposed to high FA; assay type: cell-based, rat; settings: co-administration
Method: Cell culture. Early passages of rat L6 myoblasts (ATCC CRL-1458) from the American Tissue Culture Collection (Rockville, Md.) were grown in Dulbecco's Modified Eagle Medium (DMEM) with 10% Fetal Bovine Serum, 4.0 mM glutamine, and […] gentamycin, in a humidified incubator at 37° C., 5% CO2. Myoblasts were grown on 100 mm dishes to 50-60% confluence and then subcultured onto 6 and 24-well collagen-coated plates for experiments. When cells were 70% confluent, they were induced to differentiate into myotubes by changing to low-serum DFM (DMEM, 2% horse-serum, 4.0 mM glutamine, […] gentamycin). […]
Substrate Metabolism. […] Briefly, the production of [^14C]-labeled [^14C]CO2 (complete oxidation) was measured and where appropriate, [^14C]-labeled ASM, a measure of TCA cycle intermediates and acylcarnitine esters and ketones (incomplete oxidation) was measured, using a modified 48-well microtiter plate (Kim, et al. (2002) Am. J. Physiol. Endocrinol. Metab. 282:E1014-El022). […] Radioactivity was determined by scintillation counting. […] Rates of ketone production were determined by treating media and tissue lysates with sodium borodeuteride, thereby producing ketoacids labeled with deuterium. Trimethylsilyated extracts spiked with internal standards were analyzed by GC/MS, permitting determination of βHB and AcAc in a single analysis. […]

| SMILES | Lipid-induced insulin resistance (insulin-stimulated phosphorylation of Akt) (Akt) | Accumulation of lipid metabolites (acylcarnitines, βHB-carnitine, free ketones, C2) (L6 myocytes) |
| --- | --- | --- |
| C[N+](C)(C)CC(O)CC(=O)[O-] (stereo not drawn) [carnitine] | exacerbated lipid-induced insulin resistance in a dose-dependent manner | – |
| CCOC(=O)[C@@]1(CCCCCCOc2ccc(Cl)cc2)CO1 [etomoxir] | at least partly protected | prevented |

From patent US20070110716A1, “Relationship of a specific metabolite to insulin resistance” (priority 2003, published 2007)
